From patent publication US6596711B1, “(Aminopropyl)methylphosphinic acids” (AstraZeneca AB, priority 1999, dated 2003)

- melting point: 78 to 84 °C
SMILES: CP(=O)(O)CC(F)CN (stereo not shown)
